From US4382142A, “Thiadiazole derivatives and process for preparing same” (Kowa Co., Ltd., priority 1978, dated 1983) come the findings set out here.

Where a name gives a salt, the structure may show the parent alone. Read-outs that look alike come from different tables or passages of the source.

Series [1] in a line: Acute toxicity (LD50, Litchfield-Wilcoxon method) after intraperitoneal injection in ddy mice. The conditions noted are these: mouse, in vivo, ip. The procedure: The median lethal dose (LD50) of each of the test compounds was
determined by the LitchfieldWilcoxon method after the intraperitoneal
injection of the compound into ddy mice.

Series [2] concerns P388 leukemia. The series is described as follows: Antitumor test: survival of CDF1 mice inoculated intraperitoneally with P388 leukemia. The conditions noted are these: Mus musculus, ip, i.p., 24 hours and 5 days after inoculation, 10^6 P388 i.p., read-out: Survival Effect (survival days of treated relative to control animals); for response vs control in vivo at 200 mg/kg: 200 mg/kg/day; for response vs control in vivo at 400 mg/kg: 400 mg/kg/day. The series is classed as in vivo. The method, then:
Each experimental group was composed of six CDF1 mice. The mice were
inoculated intraperitoneally with 10^6 P388 leukemia, and the test
compounds dissolved in a physiological salt solution were administered
intraperitoneally to the animals 24 hours and 5 days, respectively, after
the inoculation. The survival effect of each of the compounds was
expressed by the percentage of the survival days of the treated animals i
each group relative to those of the control animals.

Setting [3] is: intraperitoneal, ddy mice, read-out: Acute Toxicity LD50.

Broadly, the LD50 is the dose expected to kill half of the subjects tested. In the case of `CC(C)CC(N)C(=O)Nc1nncs1` (stereo not drawn) [A, 2DL-Leucylamino-1,3,4-thiadiazole.hydrochloride], the LD50 in series [1] is above 1600 mg/kg. In addition, in series [2], the response vs control in vivo at 200 mg/kg was determined as 141% and the response vs control in vivo at 400 mg/kg is 154%.
The like results for `CC(C)C[C@H](N)C(=O)Nc1nncs1` [B, 2L-Leucylamino-1,3,4-thiadiazole.hydrochloride] were, in that order, above 500 mg/kg, 144% and 161%.
In the same order, the values of `CC(C)C[C@@H](N)C(=O)Nc1nncs1` [C, 2D-Leucylamino-1,3,4-thiadiazole.hydrochloride] are above 500 mg/kg, 116% and 157%.
The compound `CCC(C)C(N)C(=O)Nc1nncs1` (stereo not drawn) [D, 2DL-Isoleucylamino-1,3,4-thiadiazole.dihydrochloride] came in with an LD50 in series [1] of 357 mg/kg. Further, the response vs control in vivo at 200 mg/kg in series [2] came out at 157%.
In series [1], `CC(C)C(N)C(=O)Nc1nncs1` (stereo not drawn) [E, 2DL-Valylamino-1,3,4-thiadiazole.hydrochloride] yielded a median lethal dose (LD50) above 1600 mg/kg. For the same compound, in series [2], the response vs control in vivo at 200 mg/kg was found to be 143% and the response vs control in vivo at 400 mg/kg is 155%.
For the compound `CC(C)[C@H](N)C(=O)Nc1nncs1` [F, 2L-Valylamino-1,3,4-thiadiazole.hydrochloride], the LD50 in series [1] is above 500 mg/kg. For the same compound, in series [2], the response vs control in vivo at 200 mg/kg stood at 183% and the response vs control in vivo at 400 mg/kg came to 190%.
In turn, `CC(C)[C@@H](N)C(=O)Nc1nncs1` [G, 2D-Valylamino-1,3,4-thiadiazole.hydrochloride] showed a median lethal dose (LD50) in series [1] above 500 mg/kg. In addition, in series [2], the response vs control in vivo at 200 mg/kg turned out to be 93% and the response vs control in vivo at 400 mg/kg worked out at 102%.
The like results for `CSCCC(N)C(=O)Nc1nncs1` (stereo not drawn) [H, 2DL-Methionylamino-1,3,4-thiadiazole.hydrochloride] were, in that order, above 1600 mg/kg, 121% and 124%.
In the same order, the values of `NC(C(=O)Nc1nncs1)c1ccccc1` (stereo not drawn) [I, 2Dl-Phenylglycylamino-1,3,4-thiadiazole.hydrobromide] are above 1600 mg/kg, 125% and 146%.
Take `NC1(C(=O)Nc2nncs2)CCCC1` [J, 2Cycloleucylamino-1,3,4-thiadiazole.hydrochloride]: the LD50 in series [1] is 165 mg/kg. Besides, the response vs control in vivo at 100 mg/kg in series [2] (100 mg/kg/day) turned out to be 153%.
In the case of `N[C@@H](CC(=O)O)C(=O)Nc1nncs1` [K, 2L-Aspartylamino-1,3,4-thiadiazole.monohydrate], in series [1], the LD50 was above 1600 mg/kg. Moreover, the response vs control in vivo at 460 mg/kg in series [2] (460 mg/kg/day) worked out at 116%. In series [2] (600 mg/kg/day), the response vs control in vivo at 600 mg/kg came out at 119%.
In the case of `N[C@@H](Cc1c[nH]c2ccccc12)C(=O)Nc1nncs1` [L, 2L-Tryptophylamino-1,3,4-thiadiazole.hydrochloride], in series [1] (setting [3]), the LD50 worked out at 1200 mg/kg. In addition, in series [2], the response vs control in vivo at 200 mg/kg worked out at 143% and the response vs control in vivo at 400 mg/kg stood at 151%.
For the compound `N[C@@H](Cc1ccccc1)C(=O)Nc1nncs1` [M, 2L-Phenylalanylamino-1,3,4-thiadiazole.hydrobromide], the LD50 in series [1] (setting [3]) turned out to be 1200 mg/kg. Further, in series [2], the response vs control in vivo at 200 mg/kg was found to be 145% and the response vs control in vivo at 400 mg/kg was 156%.
